The values that follow come from ChEMBL document CHEMBL1150515, “Synthesis and structure-activity relationships of novel THF 1-methylcarbapenems II” (1997).

The MIC is the lowest concentration found to suppress growth.

For one assay, the target named is T1, Dipeptidase 1 (Sus scrofa) (UniProt P22412).
T1 sequence (whole entry): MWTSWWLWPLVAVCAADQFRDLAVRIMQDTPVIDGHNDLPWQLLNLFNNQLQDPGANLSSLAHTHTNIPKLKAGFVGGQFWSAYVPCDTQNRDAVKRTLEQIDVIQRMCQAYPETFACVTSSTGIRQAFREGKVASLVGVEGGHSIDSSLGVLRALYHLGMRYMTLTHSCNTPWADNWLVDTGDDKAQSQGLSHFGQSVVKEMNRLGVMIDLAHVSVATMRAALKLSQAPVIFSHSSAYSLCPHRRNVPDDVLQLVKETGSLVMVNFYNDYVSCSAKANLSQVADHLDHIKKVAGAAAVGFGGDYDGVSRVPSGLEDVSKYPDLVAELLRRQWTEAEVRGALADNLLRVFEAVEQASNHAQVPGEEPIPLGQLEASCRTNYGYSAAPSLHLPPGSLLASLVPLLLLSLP
Briefly: Relative hydrolysis to that of imipenem was determined by hog renal dehydropeptidase.
Conditions: not given
`CC(=O)NC[C@H]1OCC[C@H]1SC1=C(C(=O)[O-])N2C(=O)[C@H]([C@@H](C)O)[C@H]2[C@H]1C.[Na+]` displayed a Relative hydrolysis of 4.

In turn, `C[C@@H](O)[C@H]1C(=O)N2C(C(=O)[O-])=C(S[C@@H]3CCO[C@@H]3CN(C)C)[C@H](C)[C@H]12.[Na+]` came in with a Relative hydrolysis of 7.5.

The compound `C[C@@H](N)C(=O)NC[C@H]1OCC[C@H]1SC1=C(C(=O)[O-])N2C(=O)[C@H]([C@@H](C)O)[C@H]2[C@H]1C.[Na+]` registered a Relative hydrolysis of 3.

In a further assay the test system is Escherichia coli. The experiment in a line: Antimicrobial activity against Escherichia coli (GC 1792). The format is functional.
Conditions: not given
For `CC(=O)NC[C@H]1OCC[C@H]1SC1=C(C(=O)[O-])N2C(=O)[C@H]([C@@H](C)O)[C@H]2[C@H]1C.[Na+]`, inhibition of growth (MIC) required 0.12 µg/mL.

As to `C[C@@H](O)[C@H]1C(=O)N2C(C(=O)[O-])=C(S[C@@H]3CCO[C@@H]3CN(C)C)[C@H](C)[C@H]12.[Na+]`, the MIC is 0.06 µg/mL.

With `C[C@@H](N)C(=O)NC[C@H]1OCC[C@H]1SC1=C(C(=O)[O-])N2C(=O)[C@H]([C@@H](C)O)[C@H]2[C@H]1C.[Na+]`, the lowest concentration to inhibit growth (MIC) was 0.12 µg/mL.

For another assay, the system named is Pseudomonas aeruginosa. Briefly: Antimicrobial activity against Pseudomonas aeruginosa (ATCC 27853). The format is functional.
Conditions: not given
`CC(=O)NC[C@H]1OCC[C@H]1SC1=C(C(=O)[O-])N2C(=O)[C@H]([C@@H](C)O)[C@H]2[C@H]1C.[Na+]` registered an MIC of 128 µg/mL.

For the compound `C[C@@H](O)[C@H]1C(=O)N2C(C(=O)[O-])=C(S[C@@H]3CCO[C@@H]3CN(C)C)[C@H](C)[C@H]12.[Na+]`, the MIC was 16 µg/mL.

Turning to `C[C@@H](N)C(=O)NC[C@H]1OCC[C@H]1SC1=C(C(=O)[O-])N2C(=O)[C@H]([C@@H](C)O)[C@H]2[C@H]1C.[Na+]`, the MIC amounted to 64 µg/mL.

System in the next assay: not listed separately
Briefly: Antimicrobial activity against Enterococcus faecium (GC 1182).
Conditions: not given
The format is functional.
`CC(=O)NC[C@H]1OCC[C@H]1SC1=C(C(=O)[O-])N2C(=O)[C@H]([C@@H](C)O)[C@H]2[C@H]1C.[Na+]` gave an MIC greater than 128 µg/mL.

Regarding `C[C@@H](O)[C@H]1C(=O)N2C(C(=O)[O-])=C(S[C@@H]3CCO[C@@H]3CN(C)C)[C@H](C)[C@H]12.[Na+]`, the MIC was found to be 64 µg/mL.

`C[C@@H](N)C(=O)NC[C@H]1OCC[C@H]1SC1=C(C(=O)[O-])N2C(=O)[C@H]([C@@H](C)O)[C@H]2[C@H]1C.[Na+]` yielded an MIC greater than 128 µg/mL.

A further assay deals with Pseudomonas aeruginosa. The experiment in a line: Antimicrobial activity against Pseudomonas aeruginosa (GC 1544 OprD). The format is functional.
Conditions: not given
Consider `CC(=O)NC[C@H]1OCC[C@H]1SC1=C(C(=O)[O-])N2C(=O)[C@H]([C@@H](C)O)[C@H]2[C@H]1C.[Na+]`, for which the MIC was greater than 128 µg/mL.

`C[C@@H](O)[C@H]1C(=O)N2C(C(=O)[O-])=C(S[C@@H]3CCO[C@@H]3CN(C)C)[C@H](C)[C@H]12.[Na+]` came in with an MIC of 32 µg/mL.

`C[C@@H](N)C(=O)NC[C@H]1OCC[C@H]1SC1=C(C(=O)[O-])N2C(=O)[C@H]([C@@H](C)O)[C@H]2[C@H]1C.[Na+]` displayed an MIC of 64 µg/mL.

System in a further assay: not listed separately
The experiment in a line: Antimicrobial activity against Citrobacter freundii (GC 2211). The format is functional.
Conditions: not given
`CC(=O)NC[C@H]1OCC[C@H]1SC1=C(C(=O)[O-])N2C(=O)[C@H]([C@@H](C)O)[C@H]2[C@H]1C.[Na+]` came in with an MIC of 2 µg/mL.

`C[C@@H](O)[C@H]1C(=O)N2C(C(=O)[O-])=C(S[C@@H]3CCO[C@@H]3CN(C)C)[C@H](C)[C@H]12.[Na+]` had an MIC of 0.25 µg/mL.

For the compound `C[C@@H](N)C(=O)NC[C@H]1OCC[C@H]1SC1=C(C(=O)[O-])N2C(=O)[C@H]([C@@H](C)O)[C@H]2[C@H]1C.[Na+]`, the minimum inhibitory concentration (MIC) was 1 µg/mL.

The test system of the next assay is Escherichia coli. Briefly: Antimicrobial activity against Escherichia coli (ATCC 25922).
Conditions: not given
The format is functional.
Turning to `CC(=O)NC[C@H]1OCC[C@H]1SC1=C(C(=O)[O-])N2C(=O)[C@H]([C@@H](C)O)[C@H]2[C@H]1C.[Na+]`, the MIC is no more than 0.06 µg/mL.

`C[C@@H](O)[C@H]1C(=O)N2C(C(=O)[O-])=C(S[C@@H]3CCO[C@@H]3CN(C)C)[C@H](C)[C@H]12.[Na+]`: the MIC stood at 0.03 µg/mL.

The compound `C[C@@H](N)C(=O)NC[C@H]1OCC[C@H]1SC1=C(C(=O)[O-])N2C(=O)[C@H]([C@@H](C)O)[C@H]2[C@H]1C.[Na+]` had an MIC of no more than 0.06 µg/mL.

Another assay deals with Acinetobacter calcoaceticus. The experiment in a line: Antimicrobial activity against Acinetobacter calcoaceticus (GC 756). The format is functional.
Conditions: not given
On to `CC(=O)NC[C@H]1OCC[C@H]1SC1=C(C(=O)[O-])N2C(=O)[C@H]([C@@H](C)O)[C@H]2[C@H]1C.[Na+]`, for which the MIC was 16 µg/mL.

In the case of `C[C@@H](O)[C@H]1C(=O)N2C(C(=O)[O-])=C(S[C@@H]3CCO[C@@H]3CN(C)C)[C@H](C)[C@H]12.[Na+]`, the MIC is 4 µg/mL.

For `C[C@@H](N)C(=O)NC[C@H]1OCC[C@H]1SC1=C(C(=O)[O-])N2C(=O)[C@H]([C@@H](C)O)[C@H]2[C@H]1C.[Na+]`, the MIC is 8 µg/mL.

System in the next assay: not listed separately
The experiment in a line: Antimicrobial activity against Enterobacter cloacae (GC 2209). The format is functional.
Conditions: not given
The compound `CC(=O)NC[C@H]1OCC[C@H]1SC1=C(C(=O)[O-])N2C(=O)[C@H]([C@@H](C)O)[C@H]2[C@H]1C.[Na+]` showed an MIC of 0.5 µg/mL.

On to `C[C@@H](O)[C@H]1C(=O)N2C(C(=O)[O-])=C(S[C@@H]3CCO[C@@H]3CN(C)C)[C@H](C)[C@H]12.[Na+]`, for which the MIC was no more than 0.12 µg/mL.

As for `C[C@@H](N)C(=O)NC[C@H]1OCC[C@H]1SC1=C(C(=O)[O-])N2C(=O)[C@H]([C@@H](C)O)[C@H]2[C@H]1C.[Na+]`, the lowest concentration to inhibit growth (MIC) was 0.25 µg/mL.

Another assay relates to Escherichia coli. The experiment in a line: Antimicrobial activity against Escherichia coli (GC 2205). The format is functional.
Conditions: not given
In turn, `CC(=O)NC[C@H]1OCC[C@H]1SC1=C(C(=O)[O-])N2C(=O)[C@H]([C@@H](C)O)[C@H]2[C@H]1C.[Na+]` had an MIC of no more than 0.06 µg/mL.

With `C[C@@H](O)[C@H]1C(=O)N2C(C(=O)[O-])=C(S[C@@H]3CCO[C@@H]3CN(C)C)[C@H](C)[C@H]12.[Na+]`, it took 0.06 µg/mL to inhibit growth (MIC).

In turn, `C[C@@H](N)C(=O)NC[C@H]1OCC[C@H]1SC1=C(C(=O)[O-])N2C(=O)[C@H]([C@@H](C)O)[C@H]2[C@H]1C.[Na+]` came in with an MIC of no more than 0.06 µg/mL.

System in a further assay: not listed separately
Briefly: Antimicrobial activity against Xanthomonas maltophilia (GC 562). The note with it: Stenotrophomonas maltophilia. The format is functional.
As to `CC(=O)NC[C@H]1OCC[C@H]1SC1=C(C(=O)[O-])N2C(=O)[C@H]([C@@H](C)O)[C@H]2[C@H]1C.[Na+]`, the MIC is greater than 128 µg/mL.

As for `C[C@@H](O)[C@H]1C(=O)N2C(C(=O)[O-])=C(S[C@@H]3CCO[C@@H]3CN(C)C)[C@H](C)[C@H]12.[Na+]`, the MIC was greater than 128 µg/mL.

The compound `C[C@@H](N)C(=O)NC[C@H]1OCC[C@H]1SC1=C(C(=O)[O-])N2C(=O)[C@H]([C@@H](C)O)[C@H]2[C@H]1C.[Na+]` showed an MIC greater than 128 µg/mL.

Another assay deals with Staphylococcus aureus. Briefly: Antimicrobial activity against methicillin - resistant Staphylococcus aureus (GC 2220).
Conditions: not given
The format is functional.
Compound `CC(=O)NC[C@H]1OCC[C@H]1SC1=C(C(=O)[O-])N2C(=O)[C@H]([C@@H](C)O)[C@H]2[C@H]1C.[Na+]` gave an MIC of 16 µg/mL.

For `C[C@@H](O)[C@H]1C(=O)N2C(C(=O)[O-])=C(S[C@@H]3CCO[C@@H]3CN(C)C)[C@H](C)[C@H]12.[Na+]`, 4 µg/mL was the least that counted as inhibitory (MIC).

For `C[C@@H](N)C(=O)NC[C@H]1OCC[C@H]1SC1=C(C(=O)[O-])N2C(=O)[C@H]([C@@H](C)O)[C@H]2[C@H]1C.[Na+]`, 8 µg/mL was the least that counted as inhibitory (MIC).

System in the next assay: not listed separately
The experiment in a line: Antimicrobial activity against Morganella morganii (GC 2213). The format is functional.
Conditions: not given
Compound `CC(=O)NC[C@H]1OCC[C@H]1SC1=C(C(=O)[O-])N2C(=O)[C@H]([C@@H](C)O)[C@H]2[C@H]1C.[Na+]` registered an MIC of 0.5 µg/mL.

For `C[C@@H](O)[C@H]1C(=O)N2C(C(=O)[O-])=C(S[C@@H]3CCO[C@@H]3CN(C)C)[C@H](C)[C@H]12.[Na+]`, the MIC was 0.5 µg/mL.

Take `C[C@@H](N)C(=O)NC[C@H]1OCC[C@H]1SC1=C(C(=O)[O-])N2C(=O)[C@H]([C@@H](C)O)[C@H]2[C@H]1C.[Na+]`: the minimum inhibitory concentration (MIC) amounted to 1 µg/mL.

System in the next assay: not listed separately
The experiment in a line: Antimicrobial activity against Enterococcus faecalis (GC 842). The format is functional.
Conditions: not given
As to `CC(=O)NC[C@H]1OCC[C@H]1SC1=C(C(=O)[O-])N2C(=O)[C@H]([C@@H](C)O)[C@H]2[C@H]1C.[Na+]`, the MIC amounted to 8 µg/mL.

Compound `C[C@@H](O)[C@H]1C(=O)N2C(C(=O)[O-])=C(S[C@@H]3CCO[C@@H]3CN(C)C)[C@H](C)[C@H]12.[Na+]` came in with an MIC of 1 µg/mL.

As for `C[C@@H](N)C(=O)NC[C@H]1OCC[C@H]1SC1=C(C(=O)[O-])N2C(=O)[C@H]([C@@H](C)O)[C@H]2[C@H]1C.[Na+]`, the MIC is 2 µg/mL.

For another assay, the system named is Staphylococcus aureus. The experiment in a line: Antimicrobial activity against Staphylococcus aureus (ATCC 29213). The format is functional.
Conditions: not given
`CC(=O)NC[C@H]1OCC[C@H]1SC1=C(C(=O)[O-])N2C(=O)[C@H]([C@@H](C)O)[C@H]2[C@H]1C.[Na+]` showed an MIC of 0.12 µg/mL.

The compound `C[C@@H](O)[C@H]1C(=O)N2C(C(=O)[O-])=C(S[C@@H]3CCO[C@@H]3CN(C)C)[C@H](C)[C@H]12.[Na+]` had an MIC of 0.06 µg/mL.

Turning to `C[C@@H](N)C(=O)NC[C@H]1OCC[C@H]1SC1=C(C(=O)[O-])N2C(=O)[C@H]([C@@H](C)O)[C@H]2[C@H]1C.[Na+]`, the MIC was no more than 0.06 µg/mL.
